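Five concentrations, 48 hours, 96-well plates. Abbreviation: GI50, concentration required for 50% inhibition of growth. Definition used: TGI = concentration required for complete inhibition of growth.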
Columns and labels:
Assay in all cases: growth of human tumour cells (NCI), 48 h
786-0 renal = system: 786-0 renal
A549 NSCLC = system: A549 NSCLC
ACHN renal = system: ACHN renal
CAKI-1 renal = system: CAKI-1 renal
CCRF-CEM leukemia = system: CCRF-CEM leukemia
COLO 205 colon = system: COLO 205 colon
DLD-1 colon = system: DLD-1 colon
DMS 273 small cell lung = system: DMS 273 small cell lung
EKVX NSCLC = system: EKVX NSCLC
HCC-2998 colon = system: HCC-2998 colon
HCT-116 colon = system: HCT-116 colon
HCT-15 colon = system: HCT-15 colon
HL-60(TB) leukemia = system: HL-60(TB) leukemia
HOP-18 NSCLC = system: HOP-18 NSCLC
HOP-62 NSCLC = system: HOP-62 NSCLC
HOP-92 NSCLC = system: HOP-92 NSCLC
HT29 colon = system: HT29 colon
IGROV1 ovarian = system: IGROV1 ovarian
K-562 leukemia = system: K-562 leukemia
KM12 colon = system: KM12 colon
KM20L2 colon = system: KM20L2 colon
LOX IMVI melanoma = system: LOX IMVI melanoma
LXFL 529 NSCLC = system: LXFL 529 NSCLC
M14 melanoma = system: M14 melanoma
MALME-3M melanoma = system: MALME-3M melanoma
MOLT-4 leukemia = system: MOLT-4 leukemia
NCI-H226 lung = system: NCI-H226 lung
NCI-H23 lung = system: NCI-H23 lung
NCI-H460 lung = system: NCI-H460 lung
OVCAR-3 ovarian = system: OVCAR-3 ovarian
OVCAR-4 ovarian = system: OVCAR-4 ovarian
OVCAR-5 ovarian = system: OVCAR-5 ovarian
OVCAR-8 ovarian = system: OVCAR-8 ovarian
RPMI-8226 leukemia = system: RPMI-8226 leukemia
RXF 393 renal = system: RXF 393 renal
SF-268 CNS = system: SF-268 CNS
SF-295 CNS = system: SF-295 CNS
SF-539 CNS = system: SF-539 CNS
SK-MEL-2 melanoma = system: SK-MEL-2 melanoma
SK-MEL-28 melanoma = system: SK-MEL-28 melanoma
SK-MEL-5 melanoma = system: SK-MEL-5 melanoma
SK-OV-3 ovarian = system: SK-OV-3 ovarian
SN12C renal = system: SN12C renal
SNB-19 CNS = system: SNB-19 CNS
SNB-75 CNS = system: SNB-75 CNS
SNB-78 CNS = system: SNB-78 CNS
SR leukemia = system: SR leukemia
SW-620 colon = system: SW-620 colon
TK-10 renal = system: TK-10 renal
U251 CNS = system: U251 CNS
UACC-257 melanoma = system: UACC-257 melanoma
UACC-62 melanoma = system: UACC-62 melanoma
UO-31 renal = system: UO-31 renal

Question: For `Cc1nn[n-]n1.N.N.N.N.N.[Cl-].[Co+3]`, which GI50 (786-0 renal) is on record?
Answer: > 100 µM

Question: And the TGI (786-0 renal)?
Answer: > 100 µM

Question: What about the GI50 (A549 NSCLC) of the same molecule?
Answer: > 100 µM

Question: What about the TGI (A549 NSCLC) of the same molecule?
Answer: > 100 µM

Question: And the GI50 (ACHN renal)?
Answer: > 100 µM

Question: And the TGI (ACHN renal)?
Answer: > 100 µM

Question: What about the GI50 (CAKI-1 renal) of the same molecule?
Answer: > 100 µM

Question: And the TGI (CAKI-1 renal)?
Answer: > 100 µM

Question: And the GI50 (CCRF-CEM leukemia)?
Answer: > 100 µM

Question: And the TGI (CCRF-CEM leukemia)?
Answer: > 100 µM

Question: What about the GI50 (COLO 205 colon) of the same molecule?
Answer: > 100 µM

Question: What about the TGI (COLO 205 colon) of the same molecule?
Answer: > 100 µM

Question: And the GI50 (DLD-1 colon)?
Answer: > 100 µM

Question: And the TGI (DLD-1 colon)?
Answer: > 100 µM

Question: What about the GI50 (DMS 273 small cell lung) of the same molecule?
Answer: > 100 µM

Question: What about the TGI (DMS 273 small cell lung) of the same molecule?
Answer: > 100 µM

Question: What about the GI50 (EKVX NSCLC) of the same molecule?
Answer: > 100 µM

Question: And the TGI (EKVX NSCLC)?
Answer: > 100 µM

Question: And the GI50 (HCC-2998 colon)?
Answer: > 100 µM

Question: What about the TGI (HCC-2998 colon) of the same molecule?
Answer: > 100 µM

Question: And the GI50 (HCT-116 colon)?
Answer: > 100 µM

Question: And the TGI (HCT-116 colon)?
Answer: > 100 µM

Question: And the GI50 (HCT-15 colon)?
Answer: > 100 µM

Question: What about the TGI (HCT-15 colon) of the same molecule?
Answer: > 100 µM

Question: And the GI50 (HL-60(TB) leukemia)?
Answer: > 100 µM

Question: And the TGI (HL-60(TB) leukemia)?
Answer: > 100 µM

Question: What about the GI50 (HOP-18 NSCLC) of the same molecule?
Answer: > 100 µM

Question: And the TGI (HOP-18 NSCLC)?
Answer: > 100 µM

Question: What about the GI50 (HOP-62 NSCLC) of the same molecule?
Answer: > 100 µM

Question: What about the TGI (HOP-62 NSCLC) of the same molecule?
Answer: > 100 µM

Question: What about the GI50 (HOP-92 NSCLC) of the same molecule?
Answer: > 100 µM

Question: And the TGI (HOP-92 NSCLC)?
Answer: > 100 µM

Question: And the GI50 (HT29 colon)?
Answer: > 100 µM

Question: What about the TGI (HT29 colon) of the same molecule?
Answer: > 100 µM

Question: What about the GI50 (IGROV1 ovarian) of the same molecule?
Answer: > 100 µM

Question: And the TGI (IGROV1 ovarian)?
Answer: > 100 µM

Question: And the GI50 (K-562 leukemia)?
Answer: > 100 µM

Question: What about the TGI (K-562 leukemia) of the same molecule?
Answer: > 100 µM

Question: What about the GI50 (KM12 colon) of the same molecule?
Answer: > 100 µM

Question: What about the TGI (KM12 colon) of the same molecule?
Answer: > 100 µM

Question: And the GI50 (KM20L2 colon)?
Answer: > 100 µM

Question: And the TGI (KM20L2 colon)?
Answer: > 100 µM

Question: And the GI50 (LOX IMVI melanoma)?
Answer: > 100 µM

Question: What about the TGI (LOX IMVI melanoma) of the same molecule?
Answer: > 100 µM

Question: What about the GI50 (LXFL 529 NSCLC) of the same molecule?
Answer: > 100 µM

Question: And the TGI (LXFL 529 NSCLC)?
Answer: > 100 µM

Question: And the GI50 (M14 melanoma)?
Answer: > 100 µM

Question: And the TGI (M14 melanoma)?
Answer: > 100 µM

Question: What about the GI50 (MALME-3M melanoma) of the same molecule?
Answer: > 100 µM

Question: What about the TGI (MALME-3M melanoma) of the same molecule?
Answer: > 100 µM

Question: What about the GI50 (MOLT-4 leukemia) of the same molecule?
Answer: > 100 µM

Question: What about the TGI (MOLT-4 leukemia) of the same molecule?
Answer: > 100 µM

Question: And the GI50 (NCI-H226 lung)?
Answer: > 100 µM

Question: What about the TGI (NCI-H226 lung) of the same molecule?
Answer: > 100 µM

Question: And the GI50 (NCI-H23 lung)?
Answer: > 100 µM

Question: What about the TGI (NCI-H23 lung) of the same molecule?
Answer: > 100 µM

Question: And the GI50 (NCI-H460 lung)?
Answer: > 100 µM

Question: And the TGI (NCI-H460 lung)?
Answer: > 100 µM

Question: And the GI50 (OVCAR-3 ovarian)?
Answer: > 100 µM

Question: And the TGI (OVCAR-3 ovarian)?
Answer: > 100 µM

Question: What about the GI50 (OVCAR-4 ovarian) of the same molecule?
Answer: > 100 µM

Question: And the TGI (OVCAR-4 ovarian)?
Answer: > 100 µM

Question: What about the GI50 (OVCAR-5 ovarian) of the same molecule?
Answer: > 100 µM

Question: What about the TGI (OVCAR-5 ovarian) of the same molecule?
Answer: > 100 µM

Question: What about the GI50 (OVCAR-8 ovarian) of the same molecule?
Answer: > 100 µM

Question: And the TGI (OVCAR-8 ovarian)?
Answer: > 100 µM

Question: What about the GI50 (RPMI-8226 leukemia) of the same molecule?
Answer: > 100 µM

Question: And the TGI (RPMI-8226 leukemia)?
Answer: > 100 µM

Question: And the GI50 (RXF 393 renal)?
Answer: > 100 µM

Question: What about the TGI (RXF 393 renal) of the same molecule?
Answer: > 100 µM

Question: What about the GI50 (SF-268 CNS) of the same molecule?
Answer: > 100 µM

Question: What about the TGI (SF-268 CNS) of the same molecule?
Answer: > 100 µM

Question: And the GI50 (SF-295 CNS)?
Answer: > 100 µM

Question: What about the TGI (SF-295 CNS) of the same molecule?
Answer: > 100 µM

Question: And the GI50 (SF-539 CNS)?
Answer: > 100 µM

Question: What about the TGI (SF-539 CNS) of the same molecule?
Answer: > 100 µM

Question: What about the GI50 (SK-MEL-2 melanoma) of the same molecule?
Answer: > 100 µM

Question: And the TGI (SK-MEL-2 melanoma)?
Answer: > 100 µM

Question: What about the GI50 (SK-MEL-28 melanoma) of the same molecule?
Answer: > 100 µM

Question: What about the TGI (SK-MEL-28 melanoma) of the same molecule?
Answer: > 100 µM

Question: What about the GI50 (SK-MEL-5 melanoma) of the same molecule?
Answer: > 100 µM

Question: And the TGI (SK-MEL-5 melanoma)?
Answer: > 100 µM

Question: What about the GI50 (SK-OV-3 ovarian) of the same molecule?
Answer: > 100 µM

Question: And the TGI (SK-OV-3 ovarian)?
Answer: > 100 µM

Question: And the GI50 (SN12C renal)?
Answer: > 100 µM

Question: And the TGI (SN12C renal)?
Answer: > 100 µM

Question: What about the GI50 (SNB-19 CNS) of the same molecule?
Answer: > 100 µM

Question: What about the TGI (SNB-19 CNS) of the same molecule?
Answer: > 100 µM

Question: And the GI50 (SNB-75 CNS)?
Answer: > 100 µM

Question: And the TGI (SNB-75 CNS)?
Answer: > 100 µM

Question: And the GI50 (SNB-78 CNS)?
Answer: > 100 µM

Question: What about the TGI (SNB-78 CNS) of the same molecule?
Answer: > 100 µM

Question: And the GI50 (SR leukemia)?
Answer: > 100 µM

Question: What about the TGI (SR leukemia) of the same molecule?
Answer: > 100 µM

Question: What about the GI50 (SW-620 colon) of the same molecule?
Answer: > 100 µM

Question: What about the TGI (SW-620 colon) of the same molecule?
Answer: > 100 µM

Question: What about the GI50 (TK-10 renal) of the same molecule?
Answer: > 100 µM

Question: What about the TGI (TK-10 renal) of the same molecule?
Answer: > 100 µM

Question: What about the GI50 (U251 CNS) of the same molecule?
Answer: > 100 µM

Question: And the TGI (U251 CNS)?
Answer: > 100 µM

Question: And the GI50 (UACC-257 melanoma)?
Answer: > 100 µM

Question: What about the TGI (UACC-257 melanoma) of the same molecule?
Answer: > 100 µM

Question: What about the GI50 (UACC-62 melanoma) of the same molecule?
Answer: > 100 µM

Question: What about the TGI (UACC-62 melanoma) of the same molecule?
Answer: > 100 µM

Question: And the GI50 (UO-31 renal)?
Answer: > 100 µM

Question: What about the TGI (UO-31 renal) of the same molecule?
Answer: > 100 µM
